Seven molecules from patent US8383125B2, “Antimicrobial protein” (Agriculture Victoria Services Pty, Limited, priority 2006, dated 2013) can be followed below.

In brackets after ≈: the same amount, converted by molar mass. Like-named read-outs stand apart in the source and are kept apart here. Where a SMILES comes first, the peptide text is derived from it. Where no end group is shown, it is not given here. [ ]: non-standard residue; d: D form.

Data set [1] concerns Pseudomonas aeruginosa (ATCC 27853). It is filed as cell-based. Here is the method: (§1) The MIC values of SEQ ID NO: 2 and SEQ ID NO: 19 were also determined against a range of multidrug-resistant isolates, including clinical and laboratory strains. Peptides, maintained at −20° C. in solid form for storage purposes, were subsequently dissolved in 0.01% (v/v) acetic acid (Sigma-Aldrich) to a stock concentration of […]. The stock solutions were made fresh for each experiment. Eighteen (18) bacterial isolates obtained from the Facility for Anti-Infective Drug Development and Innovation, Victoria, Australia (FADDI) as listed in Table 2 were maintained as stock cultures in Tryptic Soya Broth plus 20% (v/v) glycerol at a temperature of −80° C., and subcultured onto Nutrient Agar for each experiment. MIC values were determined in cation-adjusted Mueller-Hinton broth (CAMHB) and Mueller-Hinton broth (MHB) using standard broth micro-dilution methods.

In data set [2] the test system is Klebsiella pneumoniae (ATCC 13883). It is filed as cell-based. Here is the method: as §1
Data set [3] deals with Acinetobacter baumannii (ATCC 19606). It is filed as cell-based. Here is the method: as §1
A further data set has as its system Escherichia coli DH5 α. It is filed as cell-based. Here is the method: as §1
The test system of another data set is S. aureus (ATCC 43300). It is filed as cell-based, Staphylococcus aureus. The following applies: ATCC 43300, 17 h. Here is the method:
as §1

A further data set concerns E. coli DH5α. The following applies: for antimicrobial activity, cleared area in radial diffusion assay (FIG. 4): 5 μl of 250 μg/ml solutions.
Data set [4] deals with Staphylococcus aureus (ATCC 25923). It is filed as cell-based.
Data set [5] has as its system A. baumannii strain FADDI 006. It is filed as cell-based, Acinetobacter baumannii. The following applies: strain FADDI 006, 17 h. Here is the method:
as §1

Data set [6] concerns A. baumannii strain FADDI 007. It is filed as cell-based, Acinetobacter baumannii. The conditions noted are these: strain FADDI 007, 17 h. Here is the method:
as §1

Data set [7] relates to tammar wallaby erythrocytes. It is filed as cell-based. Here is the method:
The toxicity of the antimicrobial peptides was determined using a haemolytic assay. In particular, the hemolytic activity of the peptides was determined using tammar wallaby erythrocytes. Fresh erythrocytes were harvested from heparinized blood taken from a tammar wallaby. Erythrocytes were harvested by centrifugation for 3 min at 3000 g. Erythrocytes were then washed three times with PBS (pH 7.4) until the supernatant was essentially colourless. 20 μl two fold serial dilutions of the peptide were mixed with the same volume of erythrocytes in solution 2%) in PBS of each well of a 96-plate. 80 μl PBS was added to each well after the plate was incubated at 37° C. for one hour. Plates were then centrifuged at 3000 g for 5 min. 90 μl of the resulting supernatant was transferred to a flat-bottom microtiter plate and haemoglobin release was monitored by measuring the absorbance at 414 nm with an ELISA plate reader. […] Each sample was performed in triplicate. Percentage hemolysis was calculated by the following formula: [(OD414 peptide−OD414 buffer)/OD414 complete hemolysis−OD414 buffer)]×100%.

For data set [8], the system named is K. pneumoniae strain FADDI 010. It is filed as cell-based, Klebsiella pneumoniae. The conditions noted are these: strain FADDI 010, 17 h. Here is the method:
as §1

Data set [9] deals with K. pneumoniae strain FADDI 009. It is filed as cell-based, Klebsiella pneumoniae. The conditions noted are these: strain FADDI 009, 17 h. Here is the method: as §1
Data set [10] has as its system Candida albicans (ATCC 753). It is filed as cell-based.
Data set [11] deals with Enterococcus faecium (ATCC 700221). It is filed as cell-based. The following applies: ATCC 700221, 17 h. Here is the method:
as §1

The subject of data set [12] is Staphylococcus aureus (ATCC 700698). It is filed as cell-based. The following applies: ATCC 700698, 17 h. Here is the method:
as §1

Data set [13] deals with Streptococcus agalactiae (ATCC 12927). It is filed as cell-based.
Data set [14] concerns S. aureus strain FADDI 011. It is filed as cell-based, Staphylococcus aureus. The following applies: strain FADDI 011, 17 h. Here is the method:
as §1

For another data set, the system named is S. aureus 700699. It is filed as cell-based, Staphylococcus aureus. The conditions noted are these: 700699, 17 h. Here is the method:
as §1

Data set [15] relates to P. aeruginosa strain FADDI 002. It is filed as cell-based, Pseudomonas aeruginosa. The following applies: strain FADDI 002, 17 h. Here is the method: as §1
Data set [16] deals with A. baumannii strain FADDI 005 (ATCC 19606 derivative). It is filed as cell-based, Acinetobacter baumannii. The following applies: 17 hr at 35° C. Here is the method: as §1
Pseudomonas aeruginosa (ATCC 27853) and S. aureus (ATCC 43300) were included as quality controls in experiments. P. aeruginosa strains FADDI 001 and FADDI 002 are mucoid; and P. aeruginosa strains FADDI 003 and FADDI 004 are non-mucoid. P. aeruginosa strain FADDI 003 also has a small colony morphology. The A. baumannii strain FADDI 005 is a colistin-resistant isolate obtained from Mueller-Hinton agar containing 10 mg/L colistin.

In data set [17] the test system is P. aeruginosa (ATCC 28753). It is filed as cell-based, Pseudomonas aeruginosa.
The subject of data set [18] is Salmonella choleraesuis (ATCC 14028). It is filed as cell-based.
Data set [19] concerns Streptococcus pyogenes (ATCC 19615). It is filed as cell-based.
Data set [20] concerns Streptococcus equi equi (ATCC 9527). It is filed as cell-based. The conditions noted are these: ATCC 9527.
The next data set has as its system Bacillus subtilis. It is filed as cell-based.
Setting [21] is: MHB (less than 5 mg/L Mg2+ and 24 mg/L Ca2+), 17 hr at 35° C.

Experimental for E. coli DH5α: Briefly, approximately 4×10^6 of mid-logarithmic-phase organisms were grown on plates in 11 ml of warm 0.8% agarose containing 0.03% (w/v) Tryticase soy broth (TSB) powder, with or without 100 mM NaCl, buffered with 10 mM sodium phosphate, pH 7.4. The test peptide was serially diluted in acidified water (0.01% acetic acid), and 5 μl of diluted peptide sample was loaded in a 2.5 diameter well in the agarose. A 10 ml overlay gel composed of 6% TSB, 0.8% agarose and 10 mM sodium phosphate buffer (pH 7.4) was poured into each well. Plates were then incubated overnight to allow the surviving organisms to form microcolonies. The clear zone were measured to the nearest 0.1 mm using a magnified transilluminator and expressed in units (1 mm=10 U) after subtracting the well diameter. The minimum inhibitory concentration (MIC) is defined by the χ intercept of a regression line through zone diameters obtained from a series of serially diluted peptide samples.

On to `CC[C@H](C)[C@H](NC(=O)[C@H](CCCCN)NC(=O)[C@H](CCC(=O)O)NC(=O)[C@H](CCCCN)NC(=O)[C@H](CO)NC(=O)[C@H](CCCCN)NC(=O)[C@H](CCCNC(=N)N)NC(=O)[C@H](Cc1ccccc1)NC(=O)[C@H](Cc1ccccc1)NC(=O)[C@H](CC(=O)O)NC(=O)CNC(=O)[C@H](CC(C)C)NC(=O)[C@@H](N)CC(C)C)C(=O)NCC(=O)N[C@@H](CCCCN)C(=O)N[C@@H](CCC(=O)O)C(=O)N[C@@H](Cc1ccccc1)C(=O)N[C@@H](CCCCN)C(=O)N[C@@H](CCCNC(=N)N)C(=O)N[C@H](C(=O)N[C@H](C(=O)N[C@@H](CCC(N)=O)C(=O)N[C@@H](CCCNC(=N)N)C(=O)N[C@H](C(=O)N[C@@H](CCCCN)C(=O)N[C@@H](CC(=O)O)C(=O)N[C@@H](Cc1ccccc1)C(=O)N[C@@H](CC(C)C)C(=O)N[C@@H](CCCNC(=N)N)C(=O)N[C@@H](CC(N)=O)C(=O)N[C@@H](CC(C)C)C(=O)N[C@H](C(=O)N1CCC[C@H]1C(=O)N[C@@H](CCCNC(=N)N)C(=O)N[C@H](C(=O)N[C@@H](CCC(=O)O)C(=O)N[C@@H](CO)C(=O)O)[C@@H](C)O)C(C)C)[C@@H](C)CC)C(C)C)[C@@H](C)CC` [LL-37, reference compound], for which the MIC in [1] (setting [21]) was >32 µg/mL; in data set [2] (setting [21]), 32 µg/mL (≈ 7.12 µM); in data set [3] (setting [21]), 32 µg/mL (≈ 7.12 µM); against Escherichia coli DH5 α (microbroth dilution in MHB) it was 32 µg/mL (≈ 7.12 µM).

In the case of `CC[C@@H](C)[C@@H](NC(=O)[C@@H](CO)NC(=O)[C@@H](CC(N)=O)NC(=O)[C@@H](CCCNC(=N)N)NC(=O)[C@@H](Cc1ccccc1)NC(=O)[C@@H](CCCCN)NC(=O)[C@@H](CCCCN)NC(=O)[C@@H](CC(C)C)NC(=O)[C@@H](CCCNC(=N)N)NC(=O)[C@@H](CCCCN)NC(=O)[C@@H](CCCNC(=N)N)NC(=O)[C@@H](CC(C)C)NC(=O)[C@@H](CCCCN)NC(=O)[C@@H](CCCCN)NC(=O)CNC(=O)[C@@H](Cc1ccccc1)NC(=O)CNC(=O)[C@@H](CCCNC(=N)N)NC(=O)[C@H](N)CCCCN)C(=O)N[C@H](CCCCN)C(=O)N[C@H](CCCCN)C(=O)N[C@H](CCCNC(=N)N)C(=O)N[C@H](CC(C)C)C(=O)N[C@H](CCCCN)C(=O)N[C@H](CC(N)=O)C(=O)N[C@H](Cc1ccccc1)C(=O)N[C@H](CC(N)=O)C(=O)N[C@@H](C(=O)N[C@@H](C(=O)N[C@@H](C(=O)N1CCC[C@@H]1C(=O)N[C@@H](C(=O)N1CCC[C@@H]1C(=O)N[C@H](CC(C)C)C(=O)N1CCC[C@@H]1C(N)=O)[C@H](C)CC)[C@H](C)CC)C(C)C)C(C)C` [SEQ ID NO: 9, D-Lys D-Arg D-Gly D-Phe D-Gly D-Lys D-Lys D-Leu D-Arg D-Lys D-Arg D-Leu D-Lys D-Lys D-Phe D-Arg D-Asn D-Ser D-Ile D-Lys D-Lys D-Arg D-Leu D-Lys D-Asn D-Phe D-Asn D-Val D-Val D-Ile D-Pro D-Ile D-Pro D-Leu D-Pro] (H-[dK][dR]G[dF]G[dK][dK][dL][dR][dK][dR][dL][dK][dK][dF][dR][dN][dS][dI][dK][dK][dR][dL][dK][dN][dF][dN][dV][dV][dI][dP][dI][dP][dL][dP]-NH2; N-terminus and C-terminus assumed), the MIC in [1] (ATCC 27853, 17 h) is 4 µg/mL (≈ 0.948 µM); in [2] (ATCC 13883, 17 h) it was 4 µg/mL (≈ 0.948 µM); in [3] (ATCC 19606, 17 h), 8 µg/mL (≈ 1.9 µM); in the data set with Escherichia coli DH5 α (DH5 α) it was 4 µg/mL (≈ 0.948 µM); in the data set with S. aureus (ATCC 43300), >32 µg/mL.

On to “D-Lys Arg Gly Phe Gly Lys Lys Leu Arg Lys Arg Leu Lys Lys Phe Arg Asn Ser Ile Lys Lys Arg Leu Lys Asn Phe Asn Val Val Ile Pro Ile Pro Leu D-Pro ([dK]RGFGKKLRKRLKKFRNSIKKRLKNFNVVIPIPL[dP]) [SEQ ID NO: 11]”, for which, in the data set on E. coli DH5α (E. coli), the “antimicrobial activity, cleared area in radial diffusion assay (FIG. 4)” value (“antimicrobial activity, cleared area” below) was “exhibits antimicrobial activity”.

Regarding “D-Pro Leu Pro Ile Pro Ile Val Val Asn Phe Asn Lys Leu Arg Lys Lys Ile Ser Asn Arg Phe Lys Lys Leu Arg Lys Arg Leu Lys Lys Gly Phe Gly Arg D-Lys ([dP]LPIPIVVNFNKLRKKISNRFKKLRKRLKKGFGR[dK]) [SEQ ID NO: 17]”, in the data set with E. coli DH5α (E. coli), the “antimicrobial activity, cleared area” value is on record as “exhibits antimicrobial activity”.

“KRGFGKKLRKRLKKFRNSIKKRLKNFNVVIPIPLP-NH2 [SEQ ID NO: 2]”: in the data set with E. coli DH5α (5 μl of 250 μg/ml solutions of each peptide, E. coli), the “radial clear zone compared to LL-37 (FIG. 3)” value is recorded as “larger radial clear zone”. The “antimicrobial activity in words” value in data set [4] (Table 1) was “weaker antimicrobial activity”; in data set [10] (Table 1) it was “Weaker antimicrobial activity”; in data set [13] (Table 1), “moderate antimicrobial activity”. The minimal inhibitory concentration (MIC) in [5] was >64 µg/mL; in [6], 8 µg/mL; in [8] it was 32 µg/mL; in data set [9] it was 4 µg/mL; in data set [11], 16 µg/mL; in data set [12], >64 µg/mL. Also, the MIC is 2 µg/mL against Escherichia coli DH5 α (DH5 α); >64 µg/mL in [14]; >64 µg/mL against S. aureus 700699; >64 µg/mL against S. aureus (ATCC 43300); 4 µg/mL in [15]; 8 µg/mL in data set [16] (CAMHB (10.0 mg/L Mg2+ and 24 mg/L Ca2+)). Besides, the MIC in data set [16] (MHB (less than 5 mg/L Mg2+ and 24 mg/L Ca2+)) was 4 µg/mL. Besides, the “haemolysis at the MIC determined in Example 1” value in [7] is listed as “less than 5%”. Also, the “haemolysis at the majority of concentrations tested (FIGS. 2a and 2b)” value in [7] is reported as “did not cause substantial levels of haemolysis”.

As for “PLPIPIVVNFNKLRKKISNRFKKLRKRLKKGFGRK [SEQ ID NO: 13]”, in the data set on E. coli DH5α (E. coli), the “antimicrobial activity, cleared area” value is reported as “exhibits antimicrobial activity”.

“RKKGSKRHKPGSYSVIALGKPGVKKSPYMEAL-NH2 [SEQ ID NO: 31]”: the MIC with E. coli DH5α (DH5 α) is 1.16 ± 0.67 µg/mL; in [4] (ATCC 25923), 8.5 ± 0.23 µg/mL; in [17], 57.8 µg/mL; in data set [18], >250 µg/mL; in [19] (ATCC 19615) it was 3.43 ± 0.34 µg/mL; in data set [20], 8.66 ± 0.45 µg/mL. Moreover, the minimal inhibitory concentration (MIC) in the data set on Bacillus subtilis was 14.03 ± 0.25 µg/mL; in data set [10] (ATCC 753), >250 µg/mL; in data set [13] (ATCC 12927), 5.44 ± 0.11 µg/mL. Besides, the “antimicrobial activity in words” value was “strong protection” in the data set on E. coli DH5α (Table 1) and “moderate protection” in data set [19] (Table 1).

Usually MIC stands for the lowest concentration found to suppress growth. Higher therefore signals weaker potency.
